Data as given in patent US20040266849A1, “Therapeutic compounds for treating dyslipidemic conditions” (priority 2004, published 2004).

System: ABCA1 mRNA
Assay: Induction of ABCA1 mRNA levels in human primary macrophages
Format: cell-based
Conditions: Primary macrophage, 18 h + 6 h, vs DMSO control, read-out: Fold Induction of ABCA1 mRNA (Mean ± SEM)
Description: Induction of ABCA1 mRNA levels
Human Primary Macrophages were used to test the ability of LXR ligands to induce the expression of ABCA1 mRNA. The collection and purification of monocytes and their subsequent differentiation into macrophages by culturing in Teflon jars for 7-9 days was performed according to Wright and Silverstein J. Exp. Med. V156, October 1982 pp. 1149-1164. Cells were harvested from the Teflon jars and seeded into appropriate vessels in RPMI1640 plus 12% human serum and antibiotics. Cells were allowed to recover overnight before treatment. Treatment was for 18 hours with the described compounds, followed by a re-application of fresh compounds for an additional 6 hours in DMEM minus Phenol Red with 10% charcoal stripped FCS. The cells were harvested and total RNA prepared using the phenol/guanidine isothiocyanate method as supplied and described by Molecular Research Center, Inc. (TRI REAGENT® Cat. No. TR 118). ABCA1 mRNA levels in the total RNA were measured using the TaqMan® mRNA quantitation system, following protocols published by the manufacturer (Perkin-Elmer). The oligonucleotide PCR primers used to detect ABCA1 were: […]
The oligonucleotide probe used was:
ABCA1 mRNA levels in each sample were normalized to the mRNA levels for the 23 kDa highly basic protein. The oligonucleotide PCR primers used to detect the 23 kDa highly basic protein were: […]

CC(C)CC[C@@H](O)[C@@H](C)[C@H]1CC[C@H]2[C@@H]3CC=C4C[C@@H](O)CC[C@]4(C)[C@H]3CC[C@]12C [22-(R)-hydroxycholesterol, reference compound]
fold induction at 10 µM: 8 ± 1.37

CCCc1c(OCCCN(C)C(=O)CC(C)(C)CC(=O)O)ccc2c(C(F)(F)F)noc12 [Compound (3d)]
fold induction at 0.1 µM (0.1 μM): 0.9 ± 0.2
fold induction at 1 µM (1.0 μM): 3.3 ± 0.3
fold induction at 10 µM: 13.6 ± 1.1
